Laboratory results as given in patent US8287911B2, “Endotoxin adsorbent for the prevention and treatment of autoimmune diseases” (Chondrex Inc., priority 2006, dated 2012).
Where “and” joins values, the source holds several entries; their conditions need not be identical. Identical values can stand only once. Like-named read-outs stand apart in the source and are kept apart here.

What was measured:
[1] = Particle size distribution, microscopic method (Japanese Pharmacopoeia); assay type: physicochemical; settings: for 50% Particle Size: resins of Examples 1-7 and reference, method of Example 9
Description: The particle size of the endotoxin-adsorbent was determined based on the particle size distribution method. The particle distribution analysis was performed according to “The method for determining particle size distribution. Method 1: Microscopic method” in the second supplement of the general test procedures, section 65, Japanese Pharmacopoeia, 13th Issue. The 50% particle size (μm) was explained as the diameter of particles of the corresponding values of the accumulative volume of particles is 50%.
The particle size distribution was measured according to “Measurement of Particle Size Distribution. Method 1: Microscopic method” in the second supplement of the general test procedures, Section 65, Japanese Pharmacopoeia, 13th Issue. The microscope and camera used for this experiment was Nikon ECLIPSE E600 and Victor KY-F55B, respectively. The collected data was analyzed using Nano Hunter NS2K-Pro. The 50% particle size of RPMB was 213 μm, and the content of small particles not more than 5 μm in a diameter was 0%.

[2] = Endotoxin adsorption and elimination capacity (2), LPS-binding capacity from OD210 of supernatant; design: species or system E. coli O-111; settings: for Endotoxin-Binding capacity (LP5 mg/g*): converted to dry weight of LPS per gram resin; for Endotoxin-Binding Capacity: per gram resin, method of Example 11
Description: The LPS binding capacity of the endotoxin-adsorbent in a test tube was determined according to the method described in “endotoxin test procedures” in Japanese Pharmacopoeia, in addition to a simple assay method of LPS by measuring OD values, which was developed during this invention. The experimental procedures and results are shown in EXAMPLE 10 and 11 in detail.
The endotoxin-binding capacity of polymixin B conjugates was also studied. LPS (Sigma L4130) was dissolved in pyrogen-free water at 0.2 mg/mL, and 4 mL of this solution was added to a test tube containing 20.6 mg of RPMB-1, and incubated at 37° C. with stirring. The supernatant was collected every 30 minutes by centrifugation and the OD values at 210 nm was determined. The OD210 value was dropped from 1 to 0.6 within the first 30 minutes of incubation and remained unchanged afterwards. […] Therefore, it was assumed that 20.6 mg of LPS adsorbent added in the first test tube was saturated with LPS. Accordingly, an LPS adsorption capacity of RPMB-1 was calculated based on the OD value changes of LPS solution. Since the LPS preparation used in this experiment was not pure and contaminated by DNA and proteins, it was assumed that the final OD value of 0.4 reflected the OD value of such contaminants. Based on this assumption, it was calculated that 1 g of RPMB is capable of binding approximately 25.9 mg of LPS (Sigma L4130) using the following formula: (0.8 mg×0.4/0.6)/0.0206=25.9 mg Since the endotoxin unit of this LPS preparation is 1.1×10^6 EU/mg, it was calculated that 1 g of RPMB-1 is capable of binding 29×10^6 EU of endotoxin.
Polymixin B-conjugated resins prepared in Examples 1-7 were analyzed for their particle size distribution by the method described in Example 9 and assayed for the endotoxin-binding capacity by the method described in Example 11 to study the relationship between particle size and LPS-binding capacity. AffiPrep poplymixin B (BioRad, USA) was used as a reference.
The endotoxin-binding capacity of individual batches of endotoxin-adsorbents prepared by conjugating with 3 million units of polymixin B was compared and expressed as endotoxin units (EU) per gram weight of resin as well as LPS weight per gram resin. The weight of LPS was obtained by converting the EU values based on the EU value per mg of LPS preparation (Sigma L4130, LPS preparation from E. coli O-111, B4, by trichloroacetic acid extraction) used for this experiment.

[3] = system: autoantibody mediated, LPS-induced arthritis; assay: Autoantibody mediated, LPS-induced arthritis model; assay type: in vivo, DBA/1JNCrj mice; settings: experiment 2; for Severity of Arthritis (score) / Incidence of Arthritis: 10 mg/mouse oral; for Severity of Arthritis (score): average of 5 mice, maximum 16 per mouse; for Incidence of Arthritis: mice with arthritis/5; for effect on development of arthritis (in words): dose of 10 mg per mouse
[4] = system: autoantibody mediated, LPS-induced arthritis; assay: Autoantibody mediated, LPS-induced arthritis model; assay type: in vivo, DBA/1JNCrj mice; settings: experiment 1, day 7; for Severity of Arthritis (score): average of 5 mice, maximum 16 per mouse; for Incidence of Arthritis: mice with arthritis/5
From the text: The therapeutic effect of the endotoxin-adsorbent on autoimmune diseases can be determined in the mouse arthritis model as described in our previous invention, JP-A 2006-151914. Briefly, arthritis can be induced in 100% of mice by IP injection of enough amounts of anti-type II collagen monoclonal antibody cocktail (Chondrex Inc., Redmond, Wash., USA) within 3 days (Terato K et al. Induction of arthritis with monoclonal antibodies to collagen. J. Immunol. 148:2103-2108, 1992). By reducing the dose of the monoclonal antibody cocktail to 2 mg, all mice remained normal without developing arthritis. However, oral administration of 3 mg of LPS on 3 consecutive days from day 0, day 1, day 2 […] into these mice induced clinically apparent arthritis, which reached the peak on day 6-7. Furthermore, one group of mice was co-administered with indomethasin and ovoinhibitor, a protease-inhibitor purified from egg white. The combination of indomethasin and ovoinhibitor was used to increase the mucosal permeability of gastro-intestinal mucosa. In these mice, the effect of LPS was more significant, and more severe arthritis was induced by oral administration of a same dose of LPS. Using this arthritis model induced by a combination of monoclonal antibody and LPS, the therapeutic effect of the endotoxin-adsorbent can be determined. The benefit of this model is multifold: time of experimentation is short compared with an authentic collagen-induced arthritis model, the standard deviation of severity of arthritis among individual mice is much less, and the effect of the LPS-adsorbent is clearly determined.
DBA/1JNCrj mice (Japan Charles River) were divided into 5 groups (G1-G5, 5 mice per group). In order to increase the mucosal permeability, all mice received 40 μg of indomethasin (Sigma) and 2 mg of ovomucoid (Sigma) for 5 consecutive days from day −6 to −2 by the oral route. On day 0, all mice received an IV injection of 0.2 mL of arthritogenic monoclonal antibody cocktail (10 mg/mL). Endotoxin derived from E. coli O-111 (Phenol extracted LPS, Sigma) was dissolved in PBS at 7.5 mg/mL, and 0.2 mL of this solution was administered into G1-G4 mice by the oral route for 3 consecutive days from day 0 to 2. Endotoxin-adsorbent, RPMB-1, was suspended in distilled water at 100 mg/mL, and deaerated by a vacuum pump to keep the particles in uniform suspension by preventing the aggregation of the particles. The RPMB-1 suspension was administered to mice at doses of 0.125 mL (G2), 0.25 mL (G3) and 0.5 mL (G4) twice a day for 4 consecutive days from day 0 to 3 after LPS administration. G1 received 0.25 mL of water alone. Mice in G5, a positive control of arthritis, received IP injection of 0.1 mL of LPS solution (0.5 mg/mL in PBS) on day 3.
Severity of arthritis was scored by 5 grades, 0: normal without any swelling, 1: clinically apparent swelling of one digit, 2: moderate redness and swelling of more than 2 digits or moderate redness and swelling of the entire paw, 3: severe redness and swelling of the entire paws, and 4: maximum inflamed limb with involvement of multiple joints. The sum of the arthritis score (maximum 16 per mouse) of individual animals was calculated. The effect of the endotoxin-adsorbent was calculated based on the average score of 5 mice using the following equation: Suppression of arthritis(%)=(1−Average score of test group/Average score of control group)×100
Since the arthritis scores reached a maximum on day 7, the effect of the endotoxin-adsorbent was calculated using the scores on day 7. The suppression of arthritis by RPMB prepared in EXAMPLE 2 at 25 mg, 50 mg and 100 mg per mouse by oral administration is shown in Table 3.

[5] = assay type: binding, E. coli O-111; settings: for LPS Activity Remaining, 10 mm / LPS Activity Remaining, 20 mm / LPS Activity Remaining, Before: 1 mL LPS 5 μg/mL; for LPS Activity Remaining, 10 mm / LPS Activity Remaining, 20 mm: 37° C.; for LPS Activity Remaining, 10 mm: 10 minutes after adding resin; for LPS Activity Remaining, 20 mm: 20 minutes after adding resin; for LPS Activity Remaining, Before: supernatant before adding resin (baseline)
Description: Endotoxin was assayed by an end point colorimetric assay method using Endospecy-ES24S kit (Seikagaku Kogyo, Japan). Lipopolysaccharide (LPS) from E. coli O-111 (Sigma L4130) was dissolved in pyrogen-free water at 5 μg/mL. One mL of this LPS solution was mixed with 50 μg and 100 μg of RPMB-1, and 100 μg of polymixin B-unconjugated resin (control) and incubated at 37° C. with stirring. Endotoxin levels were determined in the supernatant before, 10 and 20 minutes after adding the resins.

Row | Substance | 50% Particle Size [1] | Endotoxin-Binding capacity (LP5 mg/g*) [2] | Endotoxin-Binding Capacity [2] | Severity of Arthritis (score) [3] | Incidence of Arthritis [3] | effect on development of arthritis (in words) [3] | other results
1 | Weakly Acidic Cation-Exchange Resin-Polymixin B Conjugate [4/300] | 400 μm | 6.3 mg/g | 7.2 × 10^6 EU/g | – | – | – | –
2 | Epoxyacryl Resin-Polymixin B Conjugate [RPMB] | 213 μm | 17.5 mg/g | 20 × 10^6 EU/g | – | – | – | Distribution of Particle Size: 10% Diameter ([1]; 1006 particles analyzed): 160 (μm); Distribution of Particle Size: 90% Diameter ([1]; 1006 particles analyzed): 266 (μm); Distribution of Particle Size: Average Diameter ([1]; 1006 particles analyzed): 197 (μm); content of small particles not more than 5 μm in a diameter ([1]; 1006 particles analyzed): 0%; LPS bound by 1 g of resin ([2]; per 1 g resin, calculated from OD value changes, (0.8 mg×0.4/0.6)/0.0206): approximately 25.9 mg
3 | Weakly Acidic Cation-Exchange Resin-Polymixin B Conjugate [1M/300] | 29 μm | 120 mg/g | 136.3 × 10^6 EU/g | 0 ± 0 score | 0/5 | suppressed the development of arthritis almost completely | –
4 | Weakly Acidic Cation-Exchange Resin-Polymixin B Conjugate [1/300] | 400 μm | 6.7 mg/g | 7.7 × 10^6 EU/g | – | – | – | –
5 | Epoxyacryl Resin-Polymixin B Conjugate [RPMB-1] | 32 μm | 26.5 mg/g | 29 × 10^6 EU/g | – | – | – | Severity of Arthritis (score) ([4]; 25 mg/mouse oral): 9 score and 6.4 ± 1.8 score; Incidence of Arthritis ([4]; 25 mg/mouse oral): 4 out of 5 and 4/5; Severity of Arthritis (score) ([4]; 50 mg/mouse oral): 2 score and 2 ± 2.8 score; Incidence of Arthritis ([4]; 50 mg/mouse oral): 2 out of 5 and 2/5; Severity of Arthritis (score) ([4]; 100 mg/mouse oral): 0 ± 0 score; Incidence of Arthritis ([4]; 100 mg/mouse oral): None of the five mice and 0/5; LPS Activity Remaining, 10 mm ([5]; resin amount 50 μg): 2403 EU/mL; LPS Activity Remaining, 20 mm ([5]; resin amount 50 μg): 1207 EU/mL; LPS Activity Remaining, Before ([5]; resin amount 50 μg): 5632 EU/mL; LPS Activity Remaining, 10 mm ([5]; resin amount 100 μg): 1004 EU/mL; LPS Activity Remaining, 20 mm ([5]; resin amount 100 μg): 170 EU/mL; LPS Activity Remaining, Before ([5]; resin amount 100 μg): 5526 EU/mL; LPS adsorption (in words) ([5]; versus polymixin B-unconjugated control resin): specifically adsorbed; OD value of supernatant after adding fresh resin ([2]; 20.5 mg fresh resin added to the supernatant, reduced from 0.6): 0.4; OD210 value of supernatant ([2]; 20.6 mg resin in 4 mL LPS 0.2 mg/mL, 37° C., within first 30 minutes, dropped from 1): 0.6; endotoxin bound by 1 g of resin ([2]; per 1 g resin, calculated with 1.1×10^6 EU/mg LPS): 29×10^6 EU
6 | Epoxyacryl Resin-Polymixin B Conjugate [RPMB-2] | 32 μm | 105 mg/g | 120 × 10^6 EU/g | 0 ± 0 score | 0/5 | suppressed the development of arthritis almost completely | –
7 | Weakly Acidic Cation-Exchange Resin-Polymixin B Conjugate [4M/300] | 26 μm | 30 mg/g | 29.5 × 10^6 EU/g | 0.8 ± 1.8 score | 1/5 | suppressed the development of arthritis almost completely | –
